Consider six cell lines from the supplement of paper PMC10307832.

Common to all, as to experiment: relative viability (nuclei count vs DMSO), 5 days (fraction); higher = more cells survive
Compound in experiment [1]: CN(C)C(=N)NC(=N)N [Metformin] + O=C(c1cc(Cc2n[nH]c(=O)c3ccccc23)ccc1F)N1CCN(C(=O)C2CC2)CC1 [Olaparib] (partner 8 µM)
The method in brief: (§1)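 Five library-drug doses in √10 steps were combined with a fixed anchor-drug dose, or a single drug was given alone, by pin tool to lung cancer cell lines in 1536-well plates the day after seeding. Nuclei were stained and counted after 5 days. Relative viability is the nuclei count in treated wells over that in vehicle wells, taken as the median of duplicate plates.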

Compound in experiment [2]: N#CC1(c2ccc(NC(=O)c3cccnc3NCc3ccncc3)cc2)CCCC1 [Apatinib] + COc1cc2c(Oc3ccc(NC(=O)C4(C(=O)Nc5ccc(F)cc5)CC4)cc3F)ccnc2cc1OCCCN1CCOCC1 [Foretinib] (partner 0.25 µM)
In outline:
as §1

Compound in experiment [3]: CN(C)C(=N)NC(=N)N [Metformin] + NC(=O)Nc1cc(-c2cccc(F)c2)sc1C(=O)N[C@H]1CCCNC1 [AZD7762] (partner 0.2 µM)
The method in brief: as §1

Compound in experiment [4]: N#CC1(c2ccc(NC(=O)c3cccnc3NCc3ccncc3)cc2)CCCC1 [Apatinib] + C[C@@H](Oc1cc(-c2cnn(C3CCNCC3)c2)cnc1N)c1c(Cl)ccc(F)c1Cl [Crizotinib] (partner 1 µM)
In outline:
as §1

As for NCI-H1915, the relative viability turned out to be 0.24 in experiment [1] (first compound 31.62 µM); 0.228 in experiment [1] (first compound 100 µM); 0.222 in experiment [1] (first compound 316.23 µM); 0.244 in experiment [1] (first compound 1000 µM); 1.18 in experiment [2] (first compound 0.08 µM); 1.08 in experiment [2] (first compound 0.253 µM). Further, the relative viability in experiment [2] (first compound 0.8 µM) came to 1.03; in experiment [2] (first compound 2.53 µM), 0.943; in experiment [2] (first compound 8 µM), 0.836; in experiment [3] (first compound 31.62 µM), 0.713; in experiment [3] (first compound 100 µM) it was 0.686; in experiment [3] (first compound 316.23 µM), 0.669. Also, the relative viability was 0.707 in experiment [3] (first compound 1000 µM); 0.945 in experiment [4] (first compound 0.08 µM); 0.864 in experiment [4] (first compound 0.253 µM); 0.855 in experiment [4] (first compound 0.8 µM); 0.819 in experiment [4] (first compound 2.53 µM); 0.78 in experiment [4] (first compound 8 µM).

For the cell line BEN, the relative viability in experiment [1] (first compound 10 µM) came to 1.11; in experiment [1] (first compound 31.62 µM), 1.18; in experiment [1] (first compound 100 µM) it was 1.23; in experiment [1] (first compound 316.23 µM) it was 1.1; in experiment [1] (first compound 1000 µM), 0.708; in experiment [2] (first compound 0.08 µM), 0.477. The relative viability in experiment [2] (first compound 0.253 µM) was 0.548; in experiment [2] (first compound 0.8 µM) it was 0.668; in experiment [2] (first compound 2.53 µM), 0.558; in experiment [2] (first compound 8 µM), 0.726; in experiment [3] (first compound 10 µM), 1.08; in experiment [3] (first compound 31.62 µM), 1.12. Moreover, the relative viability in experiment [3] (first compound 100 µM) is 0.967; in experiment [3] (first compound 316.23 µM), 0.957; in experiment [3] (first compound 1000 µM), 0.72; in experiment [4] (first compound 0.08 µM) it was 0.957; in experiment [4] (first compound 0.253 µM) it was 1; in experiment [4] (first compound 0.8 µM), 0.94. The figures for the relative viability in experiment [4] (first compound 2.53 µM) and in experiment [4] (first compound 8 µM) were 0.671 and 0.65, respectively.

Turning to ChaGo-K-1, the relative viability amounted to 0.341 in experiment [1] (first compound 10 µM); 0.343 in experiment [1] (first compound 31.62 µM); 0.319 in experiment [1] (first compound 100 µM); 0.26 in experiment [1] (first compound 316.23 µM); 0.33 in experiment [1] (first compound 1000 µM); 0.991 in experiment [2] (first compound 0.08 µM). Further, the relative viability came out at 1 in experiment [2] (first compound 0.253 µM); 0.942 in experiment [2] (first compound 0.8 µM); 0.851 in experiment [2] (first compound 2.53 µM); 0.745 in experiment [2] (first compound 8 µM); 0.788 in experiment [3] (first compound 10 µM); 0.956 in experiment [3] (first compound 31.62 µM). Besides, the relative viability stood at 0.938 in experiment [3] (first compound 100 µM); 0.849 in experiment [3] (first compound 316.23 µM); 0.862 in experiment [3] (first compound 1000 µM); 1.09 in experiment [4] (first compound 0.253 µM); 1.1 in experiment [4] (first compound 0.8 µM); 1.05 in experiment [4] (first compound 2.53 µM). Further, the relative viability in experiment [4] (first compound 8 µM) was found to be 0.901.

Turning to NCI-H1355, the relative viability in experiment [1] (first compound 10 µM) amounted to 0.696; in experiment [1] (first compound 31.62 µM), 0.715; in experiment [1] (first compound 100 µM), 0.713; in experiment [1] (first compound 316.23 µM) it was 0.679; in experiment [1] (first compound 1000 µM), 0.757; in experiment [2] (first compound 0.08 µM), 0.961. The relative viability in experiment [2] (first compound 0.253 µM) was determined as 0.9; in experiment [2] (first compound 0.8 µM), 1.07; in experiment [2] (first compound 2.53 µM) it was 0.9; in experiment [2] (first compound 8 µM), 0.786; in experiment [3] (first compound 10 µM), 0.735; in experiment [3] (first compound 31.62 µM), 0.656. Also, the relative viability in experiment [3] (first compound 100 µM) is 0.694; in experiment [3] (first compound 316.23 µM), 0.732; in experiment [3] (first compound 1000 µM), 0.72; in experiment [4] (first compound 0.08 µM), 1.04; in experiment [4] (first compound 0.253 µM), 1.03; in experiment [4] (first compound 0.8 µM), 1.03. For the same cell line, the results for the relative viability in experiment [4] (first compound 2.53 µM) and in experiment [4] (first compound 8 µM) were 0.943 and 0.815, respectively.

Regarding NCI-H1975, the relative viability was 0.653 in experiment [1] (first compound 10 µM); 0.931 in experiment [1] (first compound 31.62 µM); 0.874 in experiment [1] (first compound 100 µM); 0.849 in experiment [1] (first compound 316.23 µM); 0.955 in experiment [1] (first compound 1000 µM); 1.13 in experiment [2] (first compound 0.08 µM). Further, the relative viability stood at 0.907 in experiment [2] (first compound 0.253 µM); 0.84 in experiment [2] (first compound 0.8 µM); 0.862 in experiment [2] (first compound 2.53 µM); 0.783 in experiment [2] (first compound 8 µM); 0.772 in experiment [3] (first compound 10 µM); 0.734 in experiment [3] (first compound 31.62 µM). Also, the relative viability in experiment [3] (first compound 100 µM) is 0.681; in experiment [3] (first compound 316.23 µM) it was 0.689; in experiment [3] (first compound 1000 µM) it was 0.637; in experiment [4] (first compound 0.08 µM) it was 1; in experiment [4] (first compound 0.253 µM), 0.967; in experiment [4] (first compound 0.8 µM), 0.78. The values for the relative viability in experiment [4] (first compound 2.53 µM) and in experiment [4] (first compound 8 µM) were 0.814 and 0.78, respectively.

Regarding NCI-H2087, the relative viability stood at 0.316 in experiment [1] (first compound 10 µM); 0.453 in experiment [1] (first compound 31.62 µM); 0.414 in experiment [1] (first compound 100 µM); 0.426 in experiment [1] (first compound 316.23 µM); 0.473 in experiment [1] (first compound 1000 µM); 1.22 in experiment [2] (first compound 0.08 µM). For the same cell line, the relative viability in experiment [2] (first compound 0.253 µM) was 1.13; in experiment [2] (first compound 0.8 µM), 0.91; in experiment [2] (first compound 2.53 µM), 1.02; in experiment [2] (first compound 8 µM), 0.899; in experiment [3] (first compound 10 µM) it was 1.3; in experiment [3] (first compound 31.62 µM) it was 1.21. Further, the relative viability worked out at 1.12 in experiment [3] (first compound 100 µM); 1.11 in experiment [3] (first compound 316.23 µM); 1.39 in experiment [3] (first compound 1000 µM); 0.89 in experiment [4] (first compound 0.08 µM); 0.799 in experiment [4] (first compound 0.253 µM); 0.741 in experiment [4] (first compound 0.8 µM). Besides, the relative viability in experiment [4] (first compound 2.53 µM) is 0.614; in experiment [4] (first compound 8 µM) it was 0.7.
